Measured values from patent US20230285405A1, “Pharmaceuticals for Treating or Preventing Nidoviruses and Picornaviruses” (priority 2020, published 2023).
Where a name gives a salt, the structure may show the parent alone. Read-outs that look alike come from different tables or passages of the source.

How the values were obtained:
OC43 = test: Drug screening: OC43 nucleoprotein staining in infected A549-mRuby cells; assay type: cell-based, human beta coronavirus OC43; conditions: for activity at 10 µM: Betacoronavirus 1, OC43, 96 h
Procedure, shortened: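 A549 cells expressing H2B-mRuby infected with OC43 at MOI 0.3 for 1 h at 33° C, then drugs added at 10 μM final and incubated 4 days at 33° C. Viral nucleoprotein immunostained and imaged; intensity normalized to cell number and no-drug controls (=100). Hits reduced staining >3 SD in both repeats without toxicity.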

A549-mRuby cells = test: Drug screening: effect on cell growth (cell number day 4 / day 0); conditions: 10 μM drug; for toxic_1 / Growth_1: number of cells at day 4 divided by number of cells at day 0: repeat #1; for toxic_2 / Growth_2: number of cells at day 4 divided by number of cells at day 0: repeat #2
Procedure, shortened: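 A549 cells carrying an H2B-mRuby reporter were infected with OC43 at MOI 0.3 for 1 h at 33° C, then given drug at 10 μM final. Cell numbers were counted by imaging at day 0 and again at day 4 after 4 days at 33° C, 5% CO2, with the screen run twice.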

[1] = 10 μM drug, MOI 0.3, 4 days, OC43 staining normalized to no-drug controls, mean of the two screen repeats, read-out: OC43_mean
[2] = 10 μM drug, MOI 0.3, 4 days, normalized to no-drug controls in the same plate, repeat #2, read-out: OC43_2: % staining of OC43 in screen repeat #2
[3] = 10 μM drug, MOI 0.3, 4 days, OC43 staining normalized to no-drug controls, mean of the two screen repeats
[4] = 10 μM drug, MOI 0.3, 4 days, normalized to no-drug controls in the same plate, repeat #1
[5] = 10 μM drug, MOI 0.3, 4 days, normalized to no-drug controls in the same plate, repeat #2
[6] = 10 μM drug, MOI 0.3, 4 days, normalized to no-drug controls in the same plate, repeat #1, read-out: OC43_1: % staining of OC43 in screen repeat #1

| Compound | hit_1 (OC43; 10 μM drug, repeat #1) | hit_2 (OC43; 10 μM drug, repeat #2) | activity at 10 µM (OC43; [1]) [%] | activity at 10 µM (OC43; [2]) [%] | toxic_1 (A549-mRuby cells) | toxic_2 (A549-mRuby cells) | Growth_1: number of cells at day 4 divided by number of cells at day 0 (A549-mRuby cells) | Growth_2: number of cells at day 4 divided by number of cells at day 0 (A549-mRuby cells) | activity at 10 µM (OC43; [6]) [%] | also measured |
| --- | --- | --- | --- | --- | --- | --- | --- | --- | --- | --- |
| CS(=O)(=O)CCNCc1ccc(-c2ccc3ncnc(Nc4ccc(OCc5cccc(F)c5)c(Cl)c4)c3c2)o1 [Lapatinib ditosylate monohydrate] | 1 | 1 | 16.6 | 9.5 | 0 | 0 | – | – | – | OC43_1: % staining of OC43 in screen repeat #1 (OC43; 10 μM drug, MOI 0.3, 4 days, normalized to no-drug controls in the same plate, repeat #1, ditosylate monohydrate): 23.8%; Growth_1: number of cells at day 4 divided by number of cells at day 0 (A549-mRuby cells; ditosylate monohydrate): 4.2; Growth_2: number of cells at day 4 divided by number of cells at day 0 (A549-mRuby cells; ditosylate monohydrate): 4.2 |
| COc1ccc(CN2CCN(C(c3ccc(F)cc3)c3ccc(F)cc3)CC2)c(OC)c1OC.Cl.Cl [Lomerizine 2HCl] | 1 | 1 | – | – | 0 | 0 | 4.7 | 5.3 | – | OC43_mean (OC43; [3]): 39.9%; OC43_1: % staining of OC43 in screen repeat #1 (OC43; [4]): 56.5%; OC43_2: % staining of OC43 in screen repeat #2 (OC43; [5]): 23.3% |
| CNCCCC12CCC(c3ccccc31)c1ccccc12 [Maprotiline HCl] | 1 | 1 | 26 | 25.1 | 0 | 0 | 3.5 | 3.1 | 27 | – |
| CN1CCCCC1CCN1c2ccccc2Sc2ccc([S+](C)[O-])cc21 (stereo not drawn) [Mesoridazine Besylate] | 1 | 1 | 20.3 | 25 | 0 | 0 | 4.7 | 4.7 | 15.6 | – |
| C[C@@H]1[C@H](O)[C@@H](C)/C=C/C=C/CC/C=C/C=C/C=C/C=C/C(O[C@H]2O[C@H](C)[C@@H](O)[C@H](N)[C@@H]2O)CC2O[C@](O)(CC(O)C(O)CCC(O)CC(O)CC(O)CC(=O)O[C@H]1C)CC(O)C2C(=O)O (stereo partly drawn) [Nystatin (Fungicidin), Nystatin] | 1 | 1 | – | – | 0 | 0 | 4.6 | 5.9 | – | OC43_mean (OC43; [3]): 23.3%; OC43_1: % staining of OC43 in screen repeat #1 (OC43; [4]): 27.8%; OC43_2: % staining of OC43 in screen repeat #2 (OC43; [5]): 18.8% |
| Cc1ccccc1C(OCCN(C)C)c1ccccc1 (stereo not drawn) [Orphenadrine Hydrochloride] | 1 | 1 | 37.6 | 63.6 | 0 | 0 | 4.6 | 5.1 | 11.7 | – |
| OCCN1CCN(CCCN2c3ccccc3Sc3ccc(Cl)cc32)CC1 [Perphenazine] | 1 | 1 | 42.8 | 25.8 | 0 | 0 | 2.2 | 2.5 | 59.8 | – |
| CN1CCN(CCCN2c3ccccc3Sc3ccc(Cl)cc32)CC1 [Prochlorperazine Dimaleate] | 1 | 1 | 22.6 | 25 | 0 | 0 | 3.1 | 3.0 | 20.2 | – |
| CN(C)CCCN1c2ccccc2Sc2ccccc21 [Promazine hydrochloride] | 1 | 1 | 23 | 22.6 | 0 | 0 | 4.7 | 4.7 | 23.4 | – |
| CC(CN1c2ccccc2Sc2ccccc21)N(C)C (stereo not drawn) [Promethazine HCl] | 1 | 1 | 24.4 | 29.5 | 0 | 0 | 3.0 | 2.4 | 19.4 | – |
| CCCOC(C(=O)OC1CCN(C)CC1)(c1ccccc1)c1ccccc1 [Propiverine hydrochloride] | 1 | 1 | 27.3 | 25.2 | 0 | 0 | 3.0 | 2.2 | 29.5 | – |
| CC(C)NCC(O)COc1cccc2ccccc12 (stereo not drawn) [Propranolol HCl] | 1 | 1 | – | 27.7 | 0 | 0 | 5.6 | 4.1 | 21.6 | activity at 10 µM (OC43; read-out: OC43_mean): 24.7% |
| CCCc1cc(=O)[nH]c(=S)[nH]1 [Propylthiouracil] | 1 | 1 | – | 55.1 | 0 | 0 | 3.7 | 4.2 | 44.3 | activity at 10 µM (OC43; read-out: OC43_mean, 10 μM drug, MOI 0.3, 4 days, OC43 staining normalized to no-drug controls, mean of the two screen repeats): 49.7% |
| OCCOCCN1CCN(C2=Nc3ccccc3Sc3ccccc32)CC1 [Quetiapine Fumarate] | – | – | – | – | 0 | 0 | 3.6 | 3.7 | – | hit_1 (OC43): 1; hit_2 (OC43): 1; activity at 10 µM (OC43; read-out: OC43_1: % staining of OC43 in screen repeat #1): 34.5%; activity at 10 µM (OC43; read-out: OC43_2: % staining of OC43 in screen repeat #2): 61.5%; activity at 10 µM (OC43; read-out: OC43_mean): 48% |
| CO[C@H]1/C=C/O[C@@]2(C)Oc3c(C)c(O)c4c(c3C2=O)C2=NC3(CCN(CC(C)C)CC3)NC2=C(NC(=O)/C(C)=C\C=C\[C@H](C)[C@H](O)[C@@H](C)[C@@H](O)[C@@H](C)[C@H](OC(C)=O)[C@@H]1C)C4=O [Rifabutin] | 1 | 1 | 41.1 | 56.4 | 0 | 0 | 5.5 | 5.3 | 25.8 | – |
